Data reported in ChEMBL document CHEMBL1764952, “A novel application of DDQ as electrophile in the Nenitzescu reaction” (Bioorg Med Chem, 2011).
Blank lines part the entries; values can stand above or below the molecule they belong to.

Key:
Homo sapiens = species: Homo sapiens; experiment: Antitumor activity against human lymphoma assessed as growth inhibition at 27 uM; format: functional
Casein kinase II = Casein kinase II (Homo sapiens, UniProt P19784+P67870+P68400); experiment: Inhibition of human recombinant CK2 using RRRDDDSDDD-EDANS peptide substrate by capillary electrophoresis analysis; format: protein-complex assay
Casein kinase II, sequence (P67870 whole entry): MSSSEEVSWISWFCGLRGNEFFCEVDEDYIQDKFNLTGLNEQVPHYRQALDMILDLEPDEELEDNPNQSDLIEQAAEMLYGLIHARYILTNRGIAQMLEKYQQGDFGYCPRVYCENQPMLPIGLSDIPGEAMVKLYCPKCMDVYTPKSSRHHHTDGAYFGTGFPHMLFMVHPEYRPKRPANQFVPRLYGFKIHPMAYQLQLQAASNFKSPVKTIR
Casein kinase II, sequence (P68400 whole entry): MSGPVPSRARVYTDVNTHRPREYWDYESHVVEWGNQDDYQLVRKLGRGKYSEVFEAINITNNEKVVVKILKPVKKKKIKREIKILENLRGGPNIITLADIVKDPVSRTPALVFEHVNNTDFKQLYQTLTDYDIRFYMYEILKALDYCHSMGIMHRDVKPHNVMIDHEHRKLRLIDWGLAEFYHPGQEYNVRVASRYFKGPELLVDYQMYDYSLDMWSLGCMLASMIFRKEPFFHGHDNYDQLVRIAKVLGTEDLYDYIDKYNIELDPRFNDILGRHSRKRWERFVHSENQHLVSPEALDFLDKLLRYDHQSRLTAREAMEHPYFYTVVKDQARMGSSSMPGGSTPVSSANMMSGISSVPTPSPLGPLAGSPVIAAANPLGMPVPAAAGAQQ
Casein kinase II, sequence (P19784 whole entry): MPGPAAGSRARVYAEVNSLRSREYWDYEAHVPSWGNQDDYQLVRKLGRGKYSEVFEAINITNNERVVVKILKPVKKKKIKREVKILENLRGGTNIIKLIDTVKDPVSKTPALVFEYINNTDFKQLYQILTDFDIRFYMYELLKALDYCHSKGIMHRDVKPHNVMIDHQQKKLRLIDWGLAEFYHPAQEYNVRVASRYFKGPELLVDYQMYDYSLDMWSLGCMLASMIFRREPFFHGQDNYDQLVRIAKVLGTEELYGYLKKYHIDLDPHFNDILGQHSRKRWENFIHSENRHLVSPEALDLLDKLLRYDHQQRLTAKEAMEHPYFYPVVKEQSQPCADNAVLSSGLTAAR

[1] = target: T1, Casein kinase II (Homo sapiens) (UniProt P67870+P68400+P19784); experiment: Inhibition of human recombinant CK2 using RRRDDDSDDD-EDANS peptide substrate at 10 µM by capillary electrophoresis analysis
HOP-92 = experiment: Antitumor activity against human HOP92 cells assessed as growth inhibition; format: functional
OVCAR-5 = experiment: Antitumor activity against human OVCAR5 cells assessed as growth inhibition; format: functional
[2] = Antitumor activity against human NCI-ADR-RES cells assessed as growth inhibition; format: functional
[3] = target: T1, Casein kinase II (Homo sapiens); experiment: Inhibition of human recombinant CK2 using RRRDDDSDDD-EDANS peptide substrate at […] by capillary electrophoresis analysis; format: protein-complex assay
DU-145 = experiment: Antitumor activity against human DU145 cells assessed as growth inhibition; format: functional

IC50 (Casein kinase II): 200 nM
inhibition [1]: 93%
Structure (SMILES): CC(=O)Oc1c(Cl)c(Cl)c2oc(C(=O)C=C(C)C)c(N)c2c1C#N
growth inhibition (GI) (Homo sapiens): > 99%

IC50 (Casein kinase II): 2400 nM
inhibition [1]: 69%
Structure (SMILES): CCOC(=O)c1oc2c(Cl)c(Cl)c(OC(C)=O)c(C#N)c2c1N

inhibition [1]: 0%
Structure (SMILES): CCOC(=O)c1oc2ccc(OC(C)=O)c(CNC(C)=O)c2c1NC(C)=O

inhibition [1]: 39%
Structure (SMILES): CC(C)=CC(=O)c1coc2ccc(O)cc12

Structure (SMILES): CCOC(=O)C1=C(C)N(c2ccc(F)cc2F)C(=N)C12C(=O)C(Cl)=C(Cl)C(O)=C2C#N (centres undefined)
GI50 (HOP-92): 1780 nM

GI50 (OVCAR-5): 2690 nM
Structure (SMILES): CCOC(=O)C1=C(C)N(Cc2ccc(Cl)cc2Cl)C(=N)C12C(=O)C(Cl)=C(Cl)C(O)=C2C#N (centres undefined)
GI50 [2]: 191 nM

inhibition [1]: > 96%
Structure (SMILES): CC(C)=CC(=O)c1oc2c(Cl)c(Cl)c(O)c(C#N)c2c1N

inhibition [3]: 0%
Structure (SMILES): CCOC(=O)C1=C(C)N(Cc2ccc(Cl)cc2Cl)/C(=N\C(C)=O)C12C(=O)C(Cl)=C(Cl)C(OC(C)=O)=C2C#N (centres undefined)

GI50 (DU-145): 339 nM
Structure (SMILES): CCOC(=O)C1=C(C)N(c2ccc(Cl)cc2)C(=N)C12C(=O)C(Cl)=C(Cl)C(O)=C2C#N (centres undefined)

Structure (SMILES): CCOC(=O)C1=C(c2ccccc2)N(c2ccc(OC)cc2)C(=N)C12C(=O)C(Cl)=C(Cl)C(O)=C2C#N (centres undefined)
GI50 (HOP-92): 550 nM
